Measurements from patent US12637437B2, “Herbicidal compounds” (SYNGENTA CROP PROTECTION AG, priority 2021, dated 2026).

How the values were obtained:
Type in all cases: in vivo
[1] = test system: Echinochloa crus-galli (ECHCG); experiment: Post-emergence herbicidal glasshouse test, ECHCG; conditions: 125 g/h, evaluated after 13 days, five-point scale
Protocol: (§1) Seeds of a variety of test species are sown in standard soil in pots (Lolium perenne (LOLPE), Amaranthus retoflexus (AMARE), Abutilon theophrasti (ABUTH), Setaria faberi (SETFA), Echinochloa crus-galli (ECHCG), Ipomoea hederacea (IPOHE)). After cultivation for one day (pre-emergence) or after 8 days cultivation (post-emergence) under controlled conditions in a glasshouse (at 24/16° C., day/night; 14 hours light; 65% humidity), the plants are sprayed with an aqueous spray solution derived from the formulation of the technical active ingredient in acetone/water (50:50) solution containing 0.5% Tween 20 (polyoxyethelyene sorbitan monolaurate, CAS RN 9005-64-5). Compounds are applied at 125 g/h unless otherwise indicated. The test plants are then grown in a glasshouse under controlled conditions in a glasshouse (at 24/16° C., day/night; 14 hours light; 65% humidity) and watered twice daily. After 13 days for pre and post-emergence, the test is evaluated for the percentage damage caused to the plant. The biological activities are shown in the following table on a five-point scale (5=80-100%; 4=60-79%; 3=40-59%; 2=20-39%; 1=0-19%). “—” denotes not tested on this species or data not captured.

[2] = test system: Ipomoea hederacea (IPOHE); experiment: Post-emergence herbicidal glasshouse test, IPOHE; conditions: 125 g/h, evaluated after 13 days, five-point scale
Protocol: as §1

[3] = test system: Setaria faberi (SETFA); experiment: Post-emergence herbicidal glasshouse test, SETFA; conditions: 125 g/h, evaluated after 13 days, five-point scale
Protocol: as §1

[4] = test system: Setaria faberi (SETFA); experiment: Pre-emergence herbicidal glasshouse test, SETFA; conditions: 125 g/h, evaluated after 13 days, five-point scale
Protocol: as §1

[5] = test system: Amaranthus retoflexus (AMARE); experiment: Post-emergence herbicidal glasshouse test, AMARE; parameters: dose or concentration left out as unconfirmed; conditions: evaluated after 13 days, five-point scale
Protocol: as §1

[6] = test system: Amaranthus retoflexus (AMARE); experiment: Pre-emergence herbicidal glasshouse test, AMARE; conditions: 125 g/h, evaluated after 13 days, five-point scale
Protocol: as §1

[7] = test system: Abutilon theophrasti (ABUTH); experiment: Pre-emergence herbicidal glasshouse test, ABUTH; conditions: 125 g/h, evaluated after 13 days, five-point scale
Protocol: as §1

[8] = test system: Echinochloa crus-galli (ECHCG); experiment: Pre-emergence herbicidal glasshouse test, ECHCG; conditions: 125 g/h, evaluated after 13 days, five-point scale
Protocol: as §1

[9] = test system: Ipomoea hederacea (IPOHE); experiment: Pre-emergence herbicidal glasshouse test, IPOHE; conditions: 125 g/h, evaluated after 13 days, five-point scale
Protocol: as §1

[10] = test system: Abutilon theophrasti (ABUTH); experiment: Post-emergence herbicidal glasshouse test, ABUTH; conditions: 125 g/h, evaluated after 13 days, five-point scale
Protocol: as §1

Row | SMILES | percentage damage caused to the plant, POST Application ECHCG [1] | percentage damage caused to the plant, POST Application IPOHE [2] | percentage damage caused to the plant, POST Application SETFA [3] | percentage damage caused to the plant, PRE Application SETFA [4] | percentage damage caused to the plant, POST Application AMARE [5] | percentage damage caused to the plant, PRE Application AMARE [6] | percentage damage caused to the plant, PRE Application ABUTH [7] | percentage damage caused to the plant, PRE Application ECHCG [8] | percentage damage caused to the plant, PRE Application IPOHE [9] | percentage damage caused to the plant, POST Application ABUTH [10]
1 | CCn1nnnc1NC(=O)c1ccc(OC(F)(F)F)c(NC(=O)OC)c1Cl [Compound 1.003] | 4 (4=60-79%) | 4 (4=60-79%) | 4 (4=60-79%) | 5 (5=80-100%) | 4 (4=60-79%) | 5 (5=80-100%) | 5 (5=80-100%) | 5 (5=80-100%) | 4 (4=60-79%) | 4 (4=60-79%)
2 | COCCOC(=O)Nc1c(OC(F)(F)F)ccc(C(=O)Nc2nnnn2C)c1Cl [Compound 1.006] | 4 (4=60-79%) | 4 (4=60-79%) | 4 (4=60-79%) | 4 (4=60-79%) | 5 (5=80-100%) | 4 (4=60-79%) | 5 (5=80-100%) | 5 (5=80-100%) | 4 (4=60-79%) | 5 (5=80-100%)
3 | CC(C)OC(=O)Nc1c(OC(F)(F)F)ccc(C(=O)Nc2nnnn2C)c1Cl [Compound 1.007] | 4 (4=60-79%) | 4 (4=60-79%) | 4 (4=60-79%) | 4 (4=60-79%) | 4 (4=60-79%) | 5 (5=80-100%) | 5 (5=80-100%) | 5 (5=80-100%) | 4 (4=60-79%) | 5 (5=80-100%)
4 | COC(=O)Nc1c(OC(F)F)ccc(C(=O)Nc2nnnn2C)c1Cl [Compound 1.005] | 5 (5=80-100%) | 5 (5=80-100%) | 5 (5=80-100%) | 4 (4=60-79%) | 5 (5=80-100%) | 5 (5=80-100%) | 5 (5=80-100%) | 5 (5=80-100%) | 4 (4=60-79%) | 5 (5=80-100%)
5 | CCOC(=O)Nc1c(OC(F)(F)F)ccc(C(=O)Nc2nnnn2C)c1Cl [Compound 1.002, ethyl N-[2-chloro-3-[(1-methyltetrazol-5-yl)carbamoyl]-6-(trifluoromethoxy)phenyl]carbamate] | 4 (4=60-79%) | 4 (4=60-79%) | 4 (4=60-79%) | 4 (4=60-79%) | 4 (4=60-79%) | 5 (5=80-100%) | 5 (5=80-100%) | 5 (5=80-100%) | 5 (5=80-100%) | 4 (4=60-79%)
6 | CCOC(=O)Nc1c(OC(F)(F)F)ccc(C(=O)Nc2nnnn2CC)c1Cl [Compound 1.004] | 4 (4=60-79%) | 4 (4=60-79%) | 4 (4=60-79%) | 3 (3=40-59%) | 4 (4=60-79%) | 5 (5=80-100%) | 5 (5=80-100%) | 5 (5=80-100%) | 4 (4=60-79%) | 4 (4=60-79%)
7 | CCOC(=O)Nc1c(OC(F)F)ccc(C(=O)Nc2nnnn2C)c1Cl [Compound 1.008] | 4 (4=60-79%) | 4 (4=60-79%) | 4 (4=60-79%) | 4 (4=60-79%) | 4 (4=60-79%) | 5 (5=80-100%) | 5 (5=80-100%) | 5 (5=80-100%) | 4 (4=60-79%) | 4 (4=60-79%)
8 | COC(=O)Nc1c(OC(F)(F)F)ccc(C(=O)Nc2nnnn2C)c1Cl [Compound 1.001] | 5 (5=80-100%) | 5 (5=80-100%) | 5 (5=80-100%) | 5 (5=80-100%) | 5 (5=80-100%) | 5 (5=80-100%) | 5 (5=80-100%) | 5 (5=80-100%) | 3 (3=40-59%) | 5 (5=80-100%)
9 | CCn1nnnc1NC(=O)c1ccc(OC(F)F)c(NC(=O)OC)c1Cl [Compound 1.010] | 5 (5=80-100%) | 4 (4=60-79%) | 5 (5=80-100%) | 3 (3=40-59%) | 4 (4=60-79%) | 3 (3=40-59%) | 5 (5=80-100%) | 3 (3=40-59%) | 4 (4=60-79%) | 3 (3=40-59%)
10 | CC(=O)N1CCC(OC(=O)Nc2c(OC(F)(F)F)ccc(C(=O)Nc3nnnn3C)c2Cl)CC1 [Compound 1.021] | 5 (5=80-100%) | 2 (2=20-39%) | 4 (4=60-79%) | 1 (1=0-19%) | 4 (4=60-79%) | 3 (3=40-59%) | – | 1 (1=0-19%) | 2 (2=20-39%) | –
